In patent publication US20220389061A1, “IMMUNOMODULATORS” (priority 2019, published 2022) one finds IC50 data, which are given here for 13 compounds.

Molecules are shown by their SMILES. pIC50: −log10 of the molar value. Starred links: 1 amine or outer side, 2 acyl side, 3 side chain; linkers in the order of their positions; H or OH if unused. Positions of bridges follow the written chain, without caps; N, C: chain ends. Non-standard residues stand in square brackets, D forms with d. Residues, ends and D or L forms follow the SMILES beside them. Groups on a side chain read outwards from the residue. *: point of attachment. Trp(1-CH2COOH) = N[C@@H](Cc1cn(CC(=O)O)c2ccccc12)C(=O)O; X49 = N#Cc1ccccc1NC(=N)c1ccccc1N*; Hyp = O=C(O)[C@@H]1C[C@@H](O)CN1; X56 = COc1cc([N+](=O)[O-])ccc1N*; X3 = S=C(Nc1ccc(Oc2ccccc2)cc1)*; X78 = S=C(Nc1c(Cl)cc(Cl)cc1Cl)*; X84 = COc1cc(NC(=S)*)cc(OC)c1OC; X11 = S=C(Nc1ccccc1-c1ccccc1)*; X55 = COc1cc(NC(=S)*)cc(OC)c1; NMeNle = CCCC[C@H](NC)C(=O)O; X64 = COc1cc(OC)c(N*)cc1Cl; X74 = Cc1cc(C)c(N*)c(C)c1; 3Abz = Nc1cccc(C(=O)O)c1; NMeA = CN[C@@H](C)C(=O)O; Dab = NCC[C@H](N)C(=O)O; Dap = NC[C@H](N)C(=O)O; X37 = Fc1cc(F)cc(N*)c1; X77 = Clc1cccc(N*)c1Cl; CO = O=C([*:1])[*:2]

The target in the first assay is T1, PD-1/PD-L1 (Homo sapiens, UniProt Q9NZQ7).
T1 construct: TVMV protease site linker (C); made in house; host or cells: HEK293T cells
T1 sequence (Q9NZQ7 18-239): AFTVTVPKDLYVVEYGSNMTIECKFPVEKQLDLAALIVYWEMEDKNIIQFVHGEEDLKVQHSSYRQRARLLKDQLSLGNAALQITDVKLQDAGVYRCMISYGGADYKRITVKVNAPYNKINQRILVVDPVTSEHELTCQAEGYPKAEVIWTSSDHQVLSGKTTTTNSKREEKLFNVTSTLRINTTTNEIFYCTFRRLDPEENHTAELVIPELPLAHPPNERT
In words: PD-1/PD-L1 Homogenous Time-Resolved Fluorescence (HTRF) binding assay.
Conditions: not given
The method in brief:
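HTRF read-out using europium cryptate anti-Ig (1 nM) and APC anti-His (20 nM) on extracellular-domain fusion proteins in dPBS/0.1% BSA/0.05% Tween-20. Inhibitor first incubated 15 min with 10 nM PD-L1-His, followed by 20 nM PD-1-Ig for another 15 min.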
A general note: In TR-FRET formats the signal depends on donor and acceptor labels being close together.
By pIC50 is commonly meant −log10 of the IC50, conventionally taken in molar units. With `CCCC[C@H]1C(=O)N(C)[C@@H](CCCC)C(=O)N[C@@H](CC(C)C)C(=O)N[C@H](C(=O)NCC(N)=O)CSCC(=O)N[C@@H](Cc2ccc(O)cc2)C(=O)N(C)[C@@H](C)C(=O)N[C@@H](CC(N)=O)C(=O)N2CCC[C@H]2C(=O)N[C@@H](CNC(=O)Nc2ccc([N+](=O)[O-])cc2OC)C(=O)N[C@@H](CC(C)C)C(=O)N2C[C@H](O)C[C@H]2C(=O)N[C@@H](Cc2c[nH]c3ccccc23)C(=O)N[C@@H](CCNC(=O)Nc2ccc([N+](=O)[O-])cc2OC)C(=O)N[C@@H](Cc2cn(CC(=O)O)c3ccccc23)C(=O)N1C` [Example 1076] ({CH2CO}-Y[NMeA]NP[Dap]([CO-X56])L[Hyp]W[Dab]([CO-X56])[Trp(1-CH2COOH)][NMeNle][NMeNle]LCG-NH2; thioether N-14), the negative-log IC50 (pIC50) was 8.09. Compound `CCCC[C@H]1C(=O)N(C)[C@@H](CCCC)C(=O)N[C@@H](CC(C)C)C(=O)N[C@H](C(=O)NCC(N)=O)CSCC(=O)N[C@@H](Cc2ccc(O)cc2)C(=O)N(C)[C@@H](C)C(=O)N[C@@H](CC(N)=O)C(=O)N2CCC[C@H]2C(=O)N[C@@H](CNC(=O)Nc2cccc(Cl)c2Cl)C(=O)N[C@@H](CC(C)C)C(=O)N2C[C@H](O)C[C@H]2C(=O)N[C@@H](Cc2c[nH]c3ccccc23)C(=O)N[C@@H](CCNC(=O)Nc2cccc(Cl)c2Cl)C(=O)N[C@@H](Cc2cn(CC(=O)O)c3ccccc23)C(=O)N1C` [Example 1084] ({CH2CO}-Y[NMeA]NP[Dap]([CO-X77])L[Hyp]W[Dab]([CO-X77])[Trp(1-CH2COOH)][NMeNle][NMeNle]LCG-NH2; thioether N-14) gave a pIC50 of 8.59.

Staying with this assay, now noted: PD-L1-His 10 nM pre-incubated with inhibitor, PD-1-Ig 20 nM; read-out: HTRF IC50.
Turning to `CCCC[C@H]1C(=O)N(C)[C@@H](CCCC)C(=O)N[C@@H](CC(C)C)C(=O)N[C@H](C(=O)NCC(N)=O)CSCC(=O)N[C@@H](Cc2ccc(O)cc2)C(=O)N(C)[C@@H](C)C(=O)N[C@@H](CC(N)=O)C(=O)N2CCC[C@H]2C(=O)N[C@@H](CNC(=S)Nc2c(Cl)cc(Cl)cc2Cl)C(=O)N[C@@H](CC(C)C)C(=O)N2C[C@H](O)C[C@H]2C(=O)N[C@@H](Cc2c[nH]c3ccccc23)C(=O)N[C@@H](CCNC(=S)Nc2c(Cl)cc(Cl)cc2Cl)C(=O)N[C@@H](Cc2cn(CC(=O)O)c3ccccc23)C(=O)N1C` [Example 1077] ({CH2CO}-Y[NMeA]NP[Dap](X78)L[Hyp]W[Dab](X78)[Trp(1-CH2COOH)][NMeNle][NMeNle]LCG-NH2; thioether N-14), the negative-log IC50 (pIC50) was 8.24. For `CCCC[C@H]1C(=O)N(C)[C@@H](CCCC)C(=O)N[C@@H](CC(C)C)C(=O)N[C@H](C(=O)NCC(N)=O)CSCC(=O)N[C@@H](Cc2ccc(O)cc2)C(=O)N(C)[C@@H](C)C(=O)N[C@@H](CC(N)=O)C(=O)N2CCC[C@H]2C(=O)N[C@@H](CNC(=O)Nc2cccc(C(=O)OCC)c2)C(=O)N[C@@H](CC(C)C)C(=O)N2C[C@H](O)C[C@H]2C(=O)N[C@@H](Cc2c[nH]c3ccccc23)C(=O)N[C@@H](CCN)C(=O)N[C@@H](Cc2cn(CC(=O)O)c3ccccc23)C(=O)N1C` [Example 1078] ({CH2CO}-Y[NMeA]NP[Dap]([CO-3Abz-OEt])L[Hyp]W[Dab][Trp(1-CH2COOH)][NMeNle][NMeNle]LCG-NH2; thioether N-14), the pIC50 was 8.39. Turning to `CCCC[C@H]1C(=O)N(C)[C@@H](CCCC)C(=O)N[C@@H](CC(C)C)C(=O)N[C@H](C(=O)NCC(N)=O)CSCC(=O)N[C@@H](Cc2ccc(O)cc2)C(=O)N(C)[C@@H](C)C(=O)N[C@@H](CC(N)=O)C(=O)N2CCC[C@H]2C(=O)N[C@@H](CNC(=O)Nc2cc(F)cc(F)c2)C(=O)N[C@@H](CC(C)C)C(=O)N2C[C@H](O)C[C@H]2C(=O)N[C@@H](Cc2c[nH]c3ccccc23)C(=O)N[C@@H](CCN)C(=O)N[C@@H](Cc2cn(CC(=O)O)c3ccccc23)C(=O)N1C` [Example 1079] ({CH2CO}-Y[NMeA]NP[Dap]([CO-X37])L[Hyp]W[Dab][Trp(1-CH2COOH)][NMeNle][NMeNle]LCG-NH2; thioether N-14), the pIC50 is 8.60. `CCCC[C@H]1C(=O)N(C)[C@@H](CCCC)C(=O)N[C@@H](CC(C)C)C(=O)N[C@H](C(=O)NCC(N)=O)CSCC(=O)N[C@@H](Cc2ccc(O)cc2)C(=O)N(C)[C@@H](C)C(=O)N[C@@H](CC(N)=O)C(=O)N2CCC[C@H]2C(=O)N[C@@H](CNC(=S)Nc2ccc(Oc3ccccc3)cc2)C(=O)N[C@@H](CC(C)C)C(=O)N2C[C@H](O)C[C@H]2C(=O)N[C@@H](Cc2c[nH]c3ccccc23)C(=O)N[C@@H](CCNC(=S)Nc2ccc(Oc3ccccc3)cc2)C(=O)N[C@@H](Cc2cn(CC(=O)O)c3ccccc23)C(=O)N1C` [Example 1080] ({CH2CO}-Y[NMeA]NP[Dap](X3)L[Hyp]W[Dab](X3)[Trp(1-CH2COOH)][NMeNle][NMeNle]LCG-NH2; thioether N-14): the pIC50 was 8.47. As for `CCCC[C@H]1C(=O)N(C)[C@@H](CCCC)C(=O)N[C@@H](CC(C)C)C(=O)N[C@H](C(=O)NCC(N)=O)CSCC(=O)N[C@@H](Cc2ccc(O)cc2)C(=O)N(C)[C@@H](C)C(=O)N[C@@H](CC(N)=O)C(=O)N2CCC[C@H]2C(=O)N[C@@H](CNC(=O)Nc2c(C)cc(C)cc2C)C(=O)N[C@@H](CC(C)C)C(=O)N2C[C@H](O)C[C@H]2C(=O)N[C@@H](Cc2c[nH]c3ccccc23)C(=O)N[C@@H](CCNC(=O)Nc2c(C)cc(C)cc2C)C(=O)N[C@@H](Cc2cn(CC(=O)O)c3ccccc23)C(=O)N1C` [Example 1081] ({CH2CO}-Y[NMeA]NP[Dap]([CO-X74])L[Hyp]W[Dab]([CO-X74])[Trp(1-CH2COOH)][NMeNle][NMeNle]LCG-NH2; thioether N-14), the pIC50 is 8.57. `CCCC[C@H]1C(=O)N(C)[C@@H](CCCC)C(=O)N[C@@H](CC(C)C)C(=O)N[C@H](C(=O)NCC(N)=O)CSCC(=O)N[C@@H](Cc2ccc(O)cc2)C(=O)N(C)[C@@H](C)C(=O)N[C@@H](CC(N)=O)C(=O)N2CCC[C@H]2C(=O)N[C@@H](CNC(=O)Nc2cc(Cl)c(OC)cc2OC)C(=O)N[C@@H](CC(C)C)C(=O)N2C[C@H](O)C[C@H]2C(=O)N[C@@H](Cc2c[nH]c3ccccc23)C(=O)N[C@@H](CCNC(=O)Nc2cc(Cl)c(OC)cc2OC)C(=O)N[C@@H](Cc2cn(CC(=O)O)c3ccccc23)C(=O)N1C` [Example 1082] ({CH2CO}-Y[NMeA]NP[Dap]([CO-X64])L[Hyp]W[Dab]([CO-X64])[Trp(1-CH2COOH)][NMeNle][NMeNle]LCG-NH2; thioether N-14): the pIC50 was 8.82. For `CCCC[C@H]1C(=O)N(C)[C@@H](CCCC)C(=O)N[C@@H](CC(C)C)C(=O)N[C@H](C(=O)NCC(N)=O)CSCC(=O)N[C@@H](Cc2ccc(O)cc2)C(=O)N(C)[C@@H](C)C(=O)N[C@@H](CC(N)=O)C(=O)N2CCC[C@H]2C(=O)N[C@@H](CNC(=S)Nc2cc(OC)c(OC)c(OC)c2)C(=O)N[C@@H](CC(C)C)C(=O)N2C[C@H](O)C[C@H]2C(=O)N[C@@H](Cc2c[nH]c3ccccc23)C(=O)N[C@@H](CCNC(=S)Nc2cc(OC)c(OC)c(OC)c2)C(=O)N[C@@H](Cc2cn(CC(=O)O)c3ccccc23)C(=O)N1C` [Example 1083] ({CH2CO}-Y[NMeA]NP[Dap](X84)L[Hyp]W[Dab](X84)[Trp(1-CH2COOH)][NMeNle][NMeNle]LCG-NH2; thioether N-14), the pIC50 was 9.22. The same measure, in the same setting: with `CCCC[C@H]1C(=O)N(C)[C@@H](CCCC)C(=O)N[C@@H](CC(C)C)C(=O)N[C@H](C(=O)NCC(N)=O)CSCC(=O)N[C@@H](Cc2ccc(O)cc2)C(=O)N(C)[C@@H](C)C(=O)N[C@@H](CC(N)=O)C(=O)N2CCC[C@H]2C(=O)N[C@@H](CNC(=S)Nc2ccccc2-c2ccccc2)C(=O)N[C@@H](CC(C)C)C(=O)N2C[C@H](O)C[C@H]2C(=O)N[C@@H](Cc2c[nH]c3ccccc23)C(=O)N[C@@H](CCN)C(=O)N[C@@H](Cc2cn(CC(=O)O)c3ccccc23)C(=O)N1C` [Example 1085] ({CH2CO}-Y[NMeA]NP[Dap](X11)L[Hyp]W[Dab][Trp(1-CH2COOH)][NMeNle][NMeNle]LCG-NH2; thioether N-14) the figure was 8.42; with `CCCC[C@H]1C(=O)N(C)[C@@H](CCCC)C(=O)N[C@@H](CC(C)C)C(=O)N[C@H](C(=O)NCC(N)=O)CSCC(=O)N[C@@H](Cc2ccc(O)cc2)C(=O)N(C)[C@@H](C)C(=O)N[C@@H](CC(N)=O)C(=O)N2CCC[C@H]2C(=O)N[C@@H](CNC(=S)Nc2cc(OC)cc(OC)c2)C(=O)N[C@@H](CC(C)C)C(=O)N2C[C@H](O)C[C@H]2C(=O)N[C@@H](Cc2c[nH]c3ccccc23)C(=O)N[C@@H](CCNC(=S)Nc2cc(OC)cc(OC)c2)C(=O)N[C@@H](Cc2cn(CC(=O)O)c3ccccc23)C(=O)N1C` [Example 1086] ({CH2CO}-Y[NMeA]NP[Dap](X55)L[Hyp]W[Dab](X55)[Trp(1-CH2COOH)][NMeNle][NMeNle]LCG-NH2; thioether N-14), 8.38; with `CCCC[C@H]1C(=O)N(C)[C@@H](CCCC)C(=O)N[C@@H](CC(C)C)C(=O)N[C@H](C(=O)NCC(N)=O)CSCC(=O)N[C@@H](Cc2ccc(O)cc2)C(=O)N(C)[C@@H](C)C(=O)N[C@@H](CC(N)=O)C(=O)N2CCC[C@H]2C(=O)N[C@@H](CNC(=O)Nc2ccccc2C(=N)Nc2ccccc2C#N)C(=O)N[C@@H](CC(C)C)C(=O)N2C[C@H](O)C[C@H]2C(=O)N[C@@H](Cc2c[nH]c3ccccc23)C(=O)N[C@@H](CCNC(=O)Nc2ccccc2C(=N)Nc2ccccc2C#N)C(=O)N[C@@H](Cc2cn(CC(=O)O)c3ccccc23)C(=O)N1C` [Example 1087] ({CH2CO}-Y[NMeA]NP[Dap]([CO-X49])L[Hyp]W[Dab]([CO-X49])[Trp(1-CH2COOH)][NMeNle][NMeNle]LCG-NH2; thioether N-14), 8.59. On to `CCCC[C@H]1C(=O)N(C)[C@@H](CCCC)C(=O)N[C@@H](CC(C)C)C(=O)N[C@H](C(=O)NCC(N)=O)CSCC(=O)N[C@@H](Cc2ccc(O)cc2)C(=O)N(C)[C@@H](C)C(=O)N[C@@H](CC(N)=O)C(=O)N2CCC[C@H]2C(=O)N[C@@H](CNC(=O)Nc2ccccc2C(=N)Nc2ccccc2C#N)C(=O)N[C@@H](CC(C)C)C(=O)N2C[C@H](O)C[C@H]2C(=O)N[C@@H](Cc2c[nH]c3ccccc23)C(=O)N[C@@H](CCNC(=S)Nc2cc(OC)cc(OC)c2)C(=O)N[C@@H](Cc2cn(CC(=O)O)c3ccccc23)C(=O)N1C` [Example 1088] ({CH2CO}-Y[NMeA]NP[Dap]([CO-X49])L[Hyp]W[Dab](X55)[Trp(1-CH2COOH)][NMeNle][NMeNle]LCG-NH2; thioether N-14), for which the pIC50 is 8.54.
